Data published in patent publication US5298523A, “Method for treating transplant patients using mycalamide compounds” (priority 1992, dated 1994).
Entries after “also recorded” stand apart in the source; their conditions may differ.

Assays:
[1] = tested on: graft vs. host reaction, CB6F1 mice grafted with BALB/c splenocytes; test: Graft vs. host reaction (Simonsen splenomegaly assay); assay type: in vivo, mouse; settings: Experiment #2, 0.2 mg/kg i.p., Days 1-7
Procedure: Graft vs. host reaction. In vivo studies with mycalamide A utilized the […]→F1, GVHR model (Simonsen splenomegaly assay). CB6F1 male mice, 4 weeks of age, were injected intraperitoneally with 5×10^7 splenocytes from BALB/c male mice, 8 weeks of age, on day 0 (BALB/c→CB6F1). A syngeneic control group (CB6F1 →CB6F1) was similarly prepared and served as the negative control. For experiment 1, the grafted mice were divided into 5 treatment groups of 5 mice each. Groups were injected intraperitoneally with mycalamide A (dissolved initially in ethanol followed by dilution in sterile phosphate-buffered saline as a vehicle) or vehicle alone on days 1-7. For experiment 2, the grafted mice were divided into 7 treatment groups of 5 mice each and similarly injected intraperitoneally with mycalamide A, an immunosuppressive standard, didemnin B, or vehicle alone on days 1-7. On day 7 all groups were sacrificed, spleens excised, and the mean spleen weight and stimulation index calculated for each group. The stimulation index was calculated as follows: [formula] A spleen index of 1.3 or greater is considered a positive response.
^a CB6F1 mice (5 per group) were grafted with 5 × 10^7
BALB/c splenocytes, intraperitoneally on Day 0. Groups were injected
intraperitoneally with drug or vehicle on Days 1-7. Positive indicates
grafted mice receiving vehicle alone.
^b Number of surviving mice at the end of the experiment.
^c Stimulation index (SI) = (spleen weight of test group/body weight
of test group)/(spleen weight of syngeneic group/body weight of syngeneic
^d Suppression = [(SI of positive control) (SI of test group)]/[(SI
of positive control) (SI of syngeneic group)].
^e Didemnin B immunosuppressive standard.

murine CD4^+ T cells [2] = test: Activation of CD4+ T cells by anti-CD3 mAb/mB7; assay type: cell-based, murine (BALB/c); settings: anti-CD3/mB7
Procedure: (§1) (A) Costimulation of T cells with anti-CD3 mAb and mB7. […] (B) Costimulation of T cells with mB7 and PMA. […] All cultures were incubated for 48 hours and pulsed with 1 μCi [ ^3 H] thymidine/well for the last 6 hours of the incubation period to assay for T cell proliferation.
(§2) (A) Costimulation of T cells with anti-CD3 mAb and mB7. 2×10^5 purified BALB/c CD4^+ T lymphocytes were stimulated with the indicated concentrations of anti-CD3 mAb in the presence of medium (.largecircle.), 2×10^4 paraformaldehyde-fixed CHO-mB7 cells (.quadrature.), or 2×10^4 paraformaldehyde-fixed CHO-mB7 cells in the presence of 0.1 nM FK506 (.gradient.), 1 nM FK506 (Δ), or 10 nM FK506 ( ). (B) Costimulation of T cells with mB7 and PMA. 2×10^5 purified BALB/c CD4^+ T lymphocytes were stimulated with the indicated concentrations of PMA and either medium (.largecircle.), 2×10^4 paraformaldehyde-fixed CHO-mB7 cells (.quadrature.), or paraformaldehyde-fixed CHO-mB7 cells in the presence of 0.1 nM FK506 (.gradient.), 1 nM FK506 (Δ), or 10 nM FK506 ( ). All cultures were incubated for 48 hours and pulsed with 1 μCi [^3 H] thymidine/well for the last 6 hours of the incubation period to assay for T cell proliferation.
as §2, with “pM mycalamide A” for “nM FK506”
mB7-mediated activation of murine CD4^+ T cells. Mouse T cells were purified as follows: splenocytes were depleted of red blood cells by treatment with Tris-NH4 Cl. T cells were enriched by nylon wool fractionation. CD4^+ T cells from BALB/c mice were purified by two-fold treatment with a mixture of anti-MHC Class II and anti-CD8 monoclonal antibodies and rabbit complement. Chinese hamster ovary cells (CHO) and CHO cells transfected with the murine B7 molecule (CHOmB7) were fixed with 1% paraformaldehyde prior to addition to the cultures. Microcultures were set up in duplicate 96-well plates. […] All cultures were incubated for 48 hours and pulsed with 1 μCi ^3 H-thymidine/well for the last 6 hours of the incubation period to assay for T cell proliferation.

murine CD4^+ T cells [3] = test: Activation of CD4+ T cells by PMA/mB7; assay type: cell-based, murine (BALB/c); settings: in words
Procedure: as §1, §2
(A) Costimulation of T cells with anti-CD3 mAb and mB7. […]

[4] = T cell viability by trypan blue exclusion; assay type: cell-based, murine; settings: t cells; 1 nM, Experiment 1, 20 hours; read-out: percentage of trypan blue-positive cells
Procedure: (§3) Determination of mycalamide A toxicity. The toxicity of mycalamide A on murine splenocytes and human PBL was determined using a colorimetric assay, based on the ability of viable cells to convert the colorless tetrazolium salt, 3-(4,5-dimethylthiazol-2yl)-2,5-diphenyl tetrazolium bromide (MTT) to a colored formazan product and trypan blue exclusion. For the colorimetric assay, a volume of 0.075 ml of an MTT solution (550 μg/ml of MTT in TCM) was added to test and control wells containing one of the populations of splenocytes or test wells and incubated for 5-6 hours following the initial incubation period. Microtiter plates were centrifuged at 100× g, supernatants carefully removed, and a volume of 0.20 ml of isopropyl alcohol was added to each well to dissolve the formazan crystals. The absorbance at 570 nm was determined for each well using an ELISA plate reader. […] As an additional parameter of toxicity, wells containing cultured lymphocytes with various dilutions of mycalamide A were examined with trypan blue, and the percentage of dye-excluding (viable) cells was determined.
(§4) Compounds were added as indicated. Cells were harveste
(§5) Each data point represents the mean value o

T cells = test: T cell viability by trypan blue exclusion; assay type: cell-based, murine; settings: 1 nM
Procedure: as §3, §4, §5

| SMILES | % Suppression [1] | Number of surviving mice at the end of the experiment [1] | Stim. index [1] | potency compared to CsA (murine CD4^+ T cells [2]; FK506 vs CsA) | effect on anti-CD3/mB7 activation of CD4+ cells (murine CD4^+ T cells [2]; in words) | effect on PMA/CHO-mB7 stimulation of CD4+ cells (murine CD4^+ T cells [3]) | cytotoxicity at 20 h, 0.001 µM [4] | number of cells excluding trypan blue (T cells; Experiment 1, 20 hours) | number of cells excluding trypan blue (T cells; Experiment 2, 20 hours) | percentage of trypan blue-positive cells (T cells; Experiment 2, 20 hours) |
| --- | --- | --- | --- | --- | --- | --- | --- | --- | --- | --- |
| CC[C@H](C)[C@H]1NC(=O)[C@@H](NC(=O)[C@@H](CC(C)C)N(C)C(=O)[C@@H]2CCCN2C(=O)C(C)O)[C@@H](C)OC(=O)[C@H](Cc2ccc(OC)cc2)N(C)C(=O)[C@@H]2CCCN2C(=O)[C@H](CC(C)C)NC(=O)[C@@H](C)C(=O)[C@H](C(C)C)OC(=O)C[C@@H]1O (stereo partly shown) [Didemnin B, didemnin B, reference compound] | 113% | 5/5 | 0.93 | – | – | – | – | – | – | – |
| C=CC[C@@H]1/C=C(\C)C[C@H](C)C[C@H](OC)[C@H]2O[C@@](O)(C(=O)C(=O)N3CCCC[C@H]3C(=O)O[C@H](/C(C)=C/[C@@H]3CC[C@@H](O)[C@H](OC)C3)[C@H](C)[C@@H](O)CC1=O)[C@H](C)C[C@@H]2OC [FK506, reference compound] | – | – | – | approximately 100 times | parallel those of CsA; also recorded: blocks the anti-CD3/mB7 activation of CD4^+ cells | not affected | < 2% | 1.40 × 10^6 cells | 1.64 × 10^6 cells | < 2% |
